From patent publication US20250145585A1, “HETEROCYCLIC INHIBITORS OF IGF-1R FOR TREATMENT OF DISEASE” (HORIZON THERAPEUTICS IRELAND DAC, priority 2023, published 2025)

What was measured:
IGF-1R [1] = target: T1, IGF-1R (Homo sapiens, UniProt P08069); assay: Example B-1: IGF-1R Assay (PC3 cells stimulated with IGF1, AlphaLISA on cell lysates); type: cell-based; details: compound two hours, IGF1 200 ng/mL for 30 min, read-out: IC50, Biological Activity against IGF-1R (Table B1)
T1 construct: expressed in transfected cells
Procedure, shortened: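 IC50 from AlphaLISA read-out of lysed PC3 cells, percent inhibition normalized between vehicle and EC80 controls. Before lysis, cells had 2 h serum-free starvation, 2 h exposure to compound in 3× dilution series, and 30 min IGF1 stimulation at final 200 ng/mL.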

IGF-1R [2] = target: T1, IGF-1R; assay: Example B-2: IGF-1R Assay (PathHunter cell lines, EC80 agonist challenge, chemiluminescent detection); type: cell-based; details: PathHunter cells, compound 60 minutes at 37° C., EC80 agonist 3 hours; read-out: IC50, Biological Activity against IGF-1R (Table B2)
Procedure, shortened: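 Read-out is PathHunter chemiluminescence, developed for 1 h at room temperature after a 3 h room-temperature EC80 agonist challenge that followed 60 min compound pre-treatment at 37° C (1% vehicle). IC50 comes from % inhibition normalized to EC80 and vehicle controls.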

T1 sequence (P08069 31-1367): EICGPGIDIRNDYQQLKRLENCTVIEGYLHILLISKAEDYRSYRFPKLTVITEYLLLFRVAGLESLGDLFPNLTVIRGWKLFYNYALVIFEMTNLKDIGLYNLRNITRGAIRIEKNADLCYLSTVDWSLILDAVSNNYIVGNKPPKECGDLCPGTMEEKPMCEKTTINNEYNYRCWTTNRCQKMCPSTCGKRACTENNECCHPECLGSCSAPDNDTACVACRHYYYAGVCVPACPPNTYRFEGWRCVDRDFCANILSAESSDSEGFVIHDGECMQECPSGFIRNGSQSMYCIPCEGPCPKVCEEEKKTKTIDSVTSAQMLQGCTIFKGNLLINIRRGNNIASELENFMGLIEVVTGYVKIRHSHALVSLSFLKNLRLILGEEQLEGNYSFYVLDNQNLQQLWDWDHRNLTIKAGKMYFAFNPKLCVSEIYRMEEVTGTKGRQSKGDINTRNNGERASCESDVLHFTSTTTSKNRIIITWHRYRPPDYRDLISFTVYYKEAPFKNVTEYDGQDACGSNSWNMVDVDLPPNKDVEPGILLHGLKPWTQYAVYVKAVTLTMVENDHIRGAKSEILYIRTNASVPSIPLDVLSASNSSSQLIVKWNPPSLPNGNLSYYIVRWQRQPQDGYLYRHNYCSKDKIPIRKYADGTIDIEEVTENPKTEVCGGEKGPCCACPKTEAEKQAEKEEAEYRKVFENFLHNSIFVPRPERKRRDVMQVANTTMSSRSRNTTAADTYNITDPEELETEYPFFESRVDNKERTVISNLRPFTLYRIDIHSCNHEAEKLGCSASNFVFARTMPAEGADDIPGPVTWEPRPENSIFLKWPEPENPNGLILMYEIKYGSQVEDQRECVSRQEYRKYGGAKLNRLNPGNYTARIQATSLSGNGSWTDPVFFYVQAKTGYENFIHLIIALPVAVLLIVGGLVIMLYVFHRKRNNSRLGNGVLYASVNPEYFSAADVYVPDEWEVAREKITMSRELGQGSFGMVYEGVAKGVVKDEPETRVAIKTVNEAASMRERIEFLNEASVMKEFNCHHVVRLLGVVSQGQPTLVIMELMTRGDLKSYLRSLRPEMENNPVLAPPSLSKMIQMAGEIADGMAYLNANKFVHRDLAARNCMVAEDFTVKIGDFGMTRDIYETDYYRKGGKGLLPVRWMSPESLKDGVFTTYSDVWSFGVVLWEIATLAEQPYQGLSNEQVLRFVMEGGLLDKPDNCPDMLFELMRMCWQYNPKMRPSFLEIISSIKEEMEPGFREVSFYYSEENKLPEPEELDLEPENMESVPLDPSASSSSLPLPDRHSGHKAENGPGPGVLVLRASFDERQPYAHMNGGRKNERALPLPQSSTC

Compound | IC50 (IGF-1R [1]) [nM] | IC50 (IGF-1R [2]) [nM]
CN1C(=O)C(C)(C)c2ccc(N3C(=O)N(Cc4ccnc(N)c4)C(C)(C)C3=O)cc21 [Compound 110, 1-((2-aminopyridin-4-yl)methyl)-5,5-dimethyl-3-(1,3,3-trimethyl-2-oxoindolin-6-yl)imidazolidine-2,4-dione] | 500 to 2000 | 2000 to 10000
CC(C)Nc1cc(CN2C(=O)N(c3ccc4c(c3)N(C)C(=O)C43CC3)C(=O)C2(C)C)ccn1 [Compound 185, 1-((2-(isopropylamino)pyridin-4-yl)methyl)-5,5-dimethyl-3-(1′-methyl-2′-oxospiro[cyclopropane-1,3′-indolin]-6′-yl)imidazolidine-2,4-dione] | 2000 to 10000 | 2000 to 10000
CC(C)(O)c1ccc(N2C(=O)N(Cc3ccnc(N)c3)C(C)(C)C2=O)cc1 [Compound 88, 1-((2-aminopyridin-4-yl)methyl)-3-(4-(2-hydroxypropan-2-yl)phenyl)-5,5-dimethylimidazolidine-2,4-dione] | 500 to 2000 | 2000 to 10000
CC1(C)C(=O)N(c2ccc(SC(F)(F)F)cc2)C(=O)N1Cc1ccnc2c1CCN2 [Compound 16, 1-((2,3-dihydro-1H-pyrrolo[2,3-b]pyridin-4-yl)methyl)-5,5-dimethyl-3-(4-((trifluoromethyl)thio)phenyl)imidazolidine-2,4-dione] | ≤ 500 | ≤ 500
CC1(C)C(=O)N(c2ccc(S(=O)(=O)C(F)(F)F)cc2)C(=O)N1Cc1ccnc2c1CC(=O)N2 [Compound 23, 5,5-dimethyl-1-((2-oxo-2,3-dihydro-1H-pyrrolo[2,3-b]pyridin-4-yl)methyl)-3-(4-((trifluoromethyl)sulfonyl)phenyl)imidazolidine-2,4-dione] | ≤ 500 | ≤ 500
CC(c1ccnc(NC2CCOCC2)c1)N1C(=O)N(c2ccc(C3(C(F)(F)F)CC3)cc2)C(=O)C1(C)C (stereo not shown) [Compound 134, 5,5-dimethyl-1-(1-(2-((tetrahydro-2H-pyran-4-yl)amino)pyridin-4-yl)ethyl)-3-(4-(1-(trifluoromethyl)cyclopropyl)phenyl) imidazolidine-2,4-dione] | ≤ 500 | 500 to 2000
CC1(C)C(=O)N(c2ccc(C3(C(F)(F)F)CC3)cc2)C(=O)N1Cc1ccnc2c1CCCN2 [Compound 18, 5,5-dimethyl-1-((5,6,7,8-tetrahydro-1,8-naphthyridin-4-yl)methyl)-3-(4-(1-(trifluoromethyl)cyclopropyl)phenyl) imidazolidine-2,4-dione] | ≤ 500 | ≤ 500
CC1(C)C(=O)N(c2ccc(C3(C(F)(F)F)CC3)cc2)C(=O)N1Cc1ccnc2c1C(F)(F)C(=O)N2 [Compound 24, 1-((3,3-difluoro-2-oxo-2,3-dihydro-1H-pyrrolo[2,3-b]pyridin-4-yl)methyl)-5,5-dimethyl-3-(4-(1-(trifluoromethyl)cyclopropyl)phenyl) imidazolidine-2,4-dione] | ≤ 500 | ≤ 500
COC[C@@H](C)Nc1cc(CN2C(=O)N(c3ccc(C4(C(F)(F)F)CC4)cc3)C(=O)C2(C)C)ccn1 [Compound 114, (R)-1-((2-((1-methoxypropan-2-yl)amino)pyridin-4-yl)methyl)-5,5-dimethyl-3-(4-(1-(trifluoromethyl)cyclopropyl)phenyl)imidazolidine-2,4-dione] | ≤ 500 | ≤ 500
CC(C)Nc1cc(CN2C(=O)N(c3ccc4c(c3)N(C)C(=O)C4(C)C)C(=O)C2(C)C)ccn1 [Compound 111, 1-((2-(isopropylamino)pyridin-4-yl)methyl)-5,5-dimethyl-3-(1,3,3-trimethyl-2-oxoindolin-6-yl)imidazolidine-2,4-dione] | 2000 to 10000 | 2000 to 10000
CC1(C)C(=O)N(c2ccc(S(=O)(=O)C(F)(F)F)cc2)C(=O)N1Cc1ccnc2[nH]ccc12 [Compound 22, 1-((1H-pyrrolo[2,3-b]pyridin-4-yl)methyl)-5,5-dimethyl-3-(4-((trifluoromethyl)sulfonyl)phenyl) imidazolidine-2,4-dione] | ≤ 500 | ≤ 500
CC1(C)C(=O)N(c2ccc(C3(C(F)(F)F)CC3)cc2)C(=O)N1Cc1ccnc(NC2CCS(=O)(=O)CC2)c1 [Compound 133, 1-((2-((1,1-dioxidotetrahydro-2H-thiopyran-4-yl)amino)pyridin-4-yl)methyl)-5,5-dimethyl-3-(4-(1-(trifluoromethyl)cyclopropyl)phenyl) imidazolidine-2,4-dione] | 500 to 2000 | 500 to 2000
CC1CC(Nc2cc(CN3C(=O)N(c4ccc(C5(C(F)(F)F)CC5)cc4)C(=O)C3(C)C)ccn2)CCO1 (stereo not shown) [Compound 127, 5,5-dimethyl-1-((2-((2-methyltetrahydro-2H-pyran-4-yl)amino)pyridin-4-yl)methyl)-3-(4-(1-(trifluoromethyl)cyclopropyl)phenyl) imidazolidine-2,4-dione] | ≤ 500 | ≤ 500
COC1(c2ccc(N3C(=O)N(Cc4ccnc(NC(C)C)c4)C(C)(C)C3=O)cc2)CC1 [Compound 104, 1-((2-(isopropylamino)pyridin-4-yl)methyl)-3-(4-(1-methoxycyclopropyl)phenyl)-5,5-dimethylimidazolidine-2,4-dione] | ≤ 500 | 500 to 2000
CC(C)Nc1cc(CN2C(=O)N(c3ccc(C4(C(F)(F)F)CC4)cc3)C(=O)C2(C)C)ccn1 [Compound 84, 1-((2-(isopropylamino)pyridin-4-yl)methyl)-5,5-dimethyl-3-(4-(1-(trifluoromethyl)cyclopropyl)phenyl)imidazolidine-2,4-dione] | ≤ 500 | ≤ 500
CC1(C)C(=O)N(c2ccc(C3(C(F)(F)F)CC3)cc2)C(=O)N1Cc1ccnc2c1OCCN2 [Compound 17, 1-((3,4-dihydro-2H-pyrido[3,2-b][1,4]oxazin-8-yl)methyl)-5,5-dimethyl-3-(4-(1-(trifluoromethyl)cyclopropyl)phenyl) imidazolidine-2,4-dione] | ≤ 500 | ≤ 500
CC1(C)C(=O)N(c2ccc(C3(C(F)(F)F)CC3)cc2)C(=O)N1Cc1ccnc(NC2CCOCC2)c1 [Compound 106, 5,5-dimethyl-1-((2-((tetrahydro-2H-pyran-4-yl)amino)pyridin-4-yl)methyl)-3-(4-(1-(trifluoromethyl)cyclopropyl)phenyl) imidazolidine-2,4-dione] | ≤ 500 | ≤ 500

Further lines, results first:

IC50 (IGF-1R [1]) [nM] | IC50 (IGF-1R [2]) [nM] | Compound
500 to 2000 | 2000 to 10000 | Cn1nc(C(F)(F)F)c2ccc(N3C(=O)N(Cc4ccnc(N)c4)C(C)(C)C3=O)cc21 [Compound 255, 1-((2-aminopyridin-4-yl)methyl)-5,5-dimethyl-3-(1-methyl-3-(trifluoromethyl)-1H-indazol-6-yl)imidazolidine-2,4-dione]
≤ 500 | ≤ 500 | CC1(C)C(=O)N(c2ccc(S(=O)(=O)C(F)(F)F)cc2)C(=O)N1Cc1ccnc(N[C@H]2[C@@H]3COC[C@@H]32)c1 [Compound 319, 1-((2-(((1R,5S,6r)-3-oxabicyclo[3.1.0]hexan-6-yl)amino)pyridin-4-yl)methyl)-5,5-dimethyl-3-(4-((trifluoromethyl)sulfonyl)phenyl) imidazolidine-2,4-dione]
2000 to 10000 | 2000 to 10000 | CC(C)Nc1cc(CN2C(=O)N(c3ccc4c(c3)C(=O)N(C)C4(C)C)C(=O)C2(C)C)ccn1 [Compound 186, 1-((2-(isopropylamino)pyridin-4-yl)methyl)-5,5-dimethyl-3-(1,1,2-trimethyl-3-oxoisoindolin-5-yl)imidazolidine-2,4-dione]
2000 to 10000 | ≤ 500 | CC(C)Nc1nccc(CN2C(=O)N(c3ccc(SC(F)(F)F)cc3)C(=O)C2(C)C)c1Br [Compound 390, 1-((3-bromo-2-(isopropylamino)pyridin-4-yl)methyl)-5,5-dimethyl-3-(4-((trifluoromethyl)thio)phenyl)imidazolidine-2,4-dione]
≤ 500 | 500 to 2000 | CC(C)(C)c1ccc(N2C(=O)N(Cc3ccnc(NC4CCCCC4)c3)C(C)(C)C2=O)cc1 [Compound 264, 3-(4-(tert-butyl)phenyl)-1-((2-(cyclohexylamino)pyridin-4-yl)methyl)-5,5-dimethylimidazolidine-2,4-dione]
> 10000 | > 10000 | CC(C)Nc1cc(CN2C(=O)N(c3ccc(SC(F)(F)F)cc3)C(=O)[C@@H]2CO)ccn1 [Compound 298, (S)-5-(hydroxymethyl)-1-((2-(isopropylamino)pyridin-4-yl)methyl)-3-(4-((trifluoromethyl)thio)phenyl)imidazolidine-2,4-dione]
≤ 500 | ≤ 500 | CC1(C)C(=O)N(c2ccc(S(=O)(=O)C(F)(F)F)cc2)C(=O)N1Cc1ccnc(NCC(F)F)c1 [Compound 317, 1-((2-((2,2-difluoroethyl)amino)pyridin-4-yl)methyl)-5,5-dimethyl-3-(4-((trifluoromethyl)sulfonyl)phenyl) imidazolidine-2,4-dione]
≤ 500 | ≤ 500 | CC(C)Nc1cc(CN2C(=O)N(c3ccc4c(c3)N(C)CC4(C)C)C(=O)C2(C)C)ccn1 [Compound 188, 1-((2-(isopropylamino)pyridin-4-yl)methyl)-5,5-dimethyl-3-(1,3,3-trimethylindolin-6-yl)imidazolidine-2,4-dione]
2000 to 10000 | 2000 to 10000 | CN1C(=O)C2(CC2)c2ccc(N3C(=O)N(Cc4ccnc(N)c4)C(C)(C)C3=O)cc21 [Compound 402, 1-((2-aminopyridin-4-yl)methyl)-5,5-dimethyl-3-(1′-methyl-2′-oxospiro[cyclopropane-1,3′-indolin]-6′-yl)imidazolidine-2,4-dione]
